The assay concerns NIDD STZ rats. The assay is described as follows: Streptozotocin-induced non-insulin-dependent diabetes (NIDD) rat model: glycaemia, cholesterol, triglycerides. It is filed as in vivo, male Wistar rats. As to conditions: for Cholesterol / Glycaemia / Triglycerides: STZ (45 mg/kg) diabetic male Wistar rats, oral treatment at the doses in Table 1, measured 23 days after STZ, mean ± SEM, 10 rats per group. The protocol:
Non-insulin-dependent diabetes (NIDD) is induced by injecting streptozotocin into male wistar rats. […] The procedure followed is as follows. […] Two weeks after this treatment, blood is taken and the glycaemia is measured. […] The animals then receive, orally, either metformin alone, or a fibrate alone, or a combination of the two in the doses indicated in Table 1 below. 23 days after the injection of streptozotocin, the animals are sacrificed and the following parameters are determined: glycaemia, cholesterol and triglycerides. […] The Student t test is carried out to evaluate the significance of the results obtained.

Four compounds from US6372790B1, “Pharmaceutical composition comprising a combination of metformin and fibrate, and its use for the preparation of medicines intended to reduce hyperglycaemia” (Merck Patent Gesellschaft mit beschrankter Haftung, priority 1998, dated 2002) can be followed below.

On to `CC(C)(Oc1ccc(CCNC(=O)c2ccc(Cl)cc2)cc1)C(=O)O` [Bezafibrate, bezafibrate], for which the Cholesterol worked out at 0.52 ± 0.05 g/L, the Glycaemia worked out at 2.20 ± 0.21 g/L and the Triglycerides was 0.81 ± 0.11 g/L. Moreover, the Glycaemia (listed as bezafibrate) was 2.20 g/L.
Turning to `CCOC(=O)C(C)(C)Oc1ccc(Cl)cc1` [Clofibrate, clofibrate], the Cholesterol came to 0.63 ± 0.03 g/L, the Glycaemia was found to be 2.58 ± 0.11 g/L and the Triglycerides was found to be 0.93 ± 0.11 g/L.
In the case of `CC(C)OC(=O)C(C)(C)Oc1ccc(C(=O)c2ccc(Cl)cc2)cc1` [Fenofibrate, fenofibrate], the Cholesterol was determined as 0.45 ± 0.02 g/L and the Triglycerides was determined as 0.61 ± 0.10 g/L.
As for `CN(C)C(=N)N=C(N)N` [Metformin, metformin], the Cholesterol is 0.61 ± 0.03 g/L, the Glycaemia amounted to 1.74 ± 0.14 g/L and the Triglycerides was 0.85 ± 0.10 g/L. The Glycaemia (listed as metformin) came to 1.74 g/L. The “Effects on the levels of cholesterol and of triglycerides when administered alone” value (metformin alone, in animals, such as in man) is “effects on decreasing the levels of cholesterol and of triglycerides”.
